Results on one compound are retold here after US20230212129A1, “QUINAZOLINE DERIVATIVES USEFUL AS SELECTIVE HDAC6 INHIBITORS” (AnnJi Pharmaceutical Co., Ltd., priority 2020, published 2023).

In data set [1] the test system is Rat DRG cells. In words: Cisplatin-induced neurite degeneration in DRG cells. It counts as cell-based. The following applies: 0.3 μM with 0.5 mM cisplatin, 48 hours; p<0.05; FIG. 3. The protocol: Rat DRG cells were used to investigate the protective effect of HDAC6 inhibitors. DRG cells were treated with 0.5 mM of cisplatin with or without 0.3 μM of COMPOUND 2 or ACY1215 for 48 hours. The neurite area and the number of blebs (cell apoptosis) per image were calculated and their ratio values among the tested groups were compared and shown in FIG. 3.

The subject of data set [2] is cisplatin-induced neuropathy. Nature of the data set: Cisplatin-induced neuropathy, von Frey paw-withdrawal murine model. In kind it is in vivo, Balb/c mice. The following applies: oral once daily Day 16 to 29 (pregabalin 15 mg/kg one hour prior to test); vs cisplatin control; FIG. 4. The protocol:
To understand whether COMPOUND 2 exerts neuron protective activities in cisplatin-induced neuropathy, a paw-withdrawal murine model is deployed. The 50% paw withdrawal threshold (PWT) to a static mechanical stimulus was assessed using von Frey filament and up-and-down method following the procedure described by Chaplan (1994). Mechanical allodynia, a painful sensation caused by innocuous stimuli like light touch, was assessed by the manual von Frey test once per week (on day 7, 14, 21, 28, […], and 42). The animals indicated sensation by pulling back its paw. The minimum force leading to withdrawal of the paw was regarded as the reflex threshold.
Balb/c mice weighing about 25±2 gram were given cisplatin intraperitoneally at the dose of 1.5 mg/kg for 5 consecutive days (cumulative dose of 7.5 mg/kg), followed by 5 days of recovery. The cisplatin administration cycle was repeated once more to reach a cumulative dose of 15 mg/kg to induce neuropathy. Test compounds, COMPOUND 2 and ACY1215, were orally administered once daily for 2 weeks (except for the weekends) from Day 16 to 29. Pregabalin, a drug known to provide transient pain relief, was administered at a dose of 15 mg/kg prior to each von Frey stimulus test to serve as the positive control.

Data set [3] is described as follows: Oral pharmacokinetics (Table II). The following applies: in vivo. Also on record: AUC: concentration or dose not given beside the values.
Data set [4] has as its system paclitaxel-induced peripheral neuropathy. Nature of the data set: Paclitaxel-induced peripheral neuropathy, Von Frey test. In kind it is in vivo, Sprague-Dawley (SD) rats. How it is done: Male Sprague-Dawley (SD) rats, weighing 320±30 grams, were given paclitaxel intraperitoneally at the dose of 6 mg/kg for 5 consecutive days with a total cumulative dose of 30 mg/kg to induce chemotherapy-induced peripheral neuropathy.
Compound 2 or vehicle was administered orally once daily for 2 weeks during the weekdays (Days 8 to 12 and 15-19). Mechanical allodynia is assessed by the manual Von Frey test once per week. The animals are given 20 to 30 minutes to acclimatize prior to the testing. The paw is pressed with a series of 8 manual Von Frey monofilaments with logarithmically incremental stiffness [3.61 (0.4 g), 3.84 (0.6 g), 4.08 (1.0 g), 4.31 (2.0 g), 4.56 (4.0 g), 4.93 (8.0 g), 5.18 (15.0 g) and (26.0 g)]. The manual Von Frey monofilament was applied perpendicularly from underneath the mesh floor to the central plantar surface with sufficient force to cause a slight buckling against the paw, and held for approximately 6-8 seconds. A positive response was noted if the paw is sharply withdrawn; ambulation is considered an ambiguous response, and in such cases, the stimulus is reapplied. The 50% paw withdrawal threshold (PWT) to a static mechanical stimulus was assessed using Von Frey filament and up-and-down method.
Von Frey data were presented as mean±SEM (Standard Error of the Mean). Treatment groups were compared to the paclitaxel control using Student's T-test. A p value <0.05 is considered to represent a significant difference.

Data set [5] has as its system dorsal root ganglion (DRG) cells. In words: DRG neurite outgrowth after paclitaxel-induced damage. The following applies: 0.1 μM and 1 μM, 24 hours prior to 24-hour 0.1 μM paclitaxel; FIG. 1. It counts as cell-based, C57BL/6J mice. The protocol:
(§1) To investigate the effect of HDAC6 inhibitors in neuron protection and neuron regeneration, the recovery of dorsal root ganglion (DRG) cells post-paclitaxel injury was tested. Dorsal root ganglion was extracted from 7 week-old female C57BL/6J mice and incubated with HDAC6 inhibitors (compounds COMPOUND 33, COMPOUND 34, or COMPOUND 2) at the concentrations of 0.1 μM and 1 μM, or 100 ng/ml of BDNF, a neuronal growth factor (positive control), for 24 hours prior to a 24-hour incubation of 0.1 μM paclitaxel.
The neurite was stained by pIII-tubulin.

The subject of data set [6] is BioMAP Fibrosis panel (REMyoF, SAEMyoF, MyoF systems). Nature of the data set: BioMAP Fibrosis panel cytokine/biomarker profiles. It counts as cell-based. The protocol:
The HDAC6 inhibitor compounds were tested in a commercially available platform, BioMAP, for the cytokine profiles in related to tissue injuries. The BioMAP Fibrosis panel included 3 systems stimulated to model TGFβ and TNFα driven myofibroblast differentiation during chronic inflammation and wound healing in different tissue settings. Fibrotic disease of the kidney associated with end-stage renal failure was captured in the REMyoF system consisting of a co-culture of renal proximal tubule epithelial cells and adult fibroblasts. Interstitial lung diseases, including pulmonary fibrotic diseases such as idiopathic pulmonary fibrosis (IPF), was modeled by co-culturing small airway epithelial cells and adult fibroblasts in the SAEMyoF system. Both co-culture systems modeled the paracrine interaction between myofibroblasts and the proximally located epithelial cells, while the impact on fibroblasts alone was interrogated using the monoculture MyoF system. A signature BioMAP profile that is reflective of the changes in protein biomarker readouts within an individual system was generated for each testing compounds. Biomarker readouts selected for therapeutic and biological relevance were predictive for disease outcomes or specific drug effects, and was validated using agents with known clinical efficacy. Each readout was measured quantitatively by immune-based methods that detect protein (e.g., ELISA).

Data set [7] concerns acetylated α-tubulin (Ac-α-tub). Nature of the data set: Western blot of acetylated α-tubulin in primary DRG cells. It counts as cell-based, C57BL/6J mice. The following applies: 48 hours of treatment, FIG. 2. The protocol:
as §1

For data set [8], the system named is IL-6. Nature of the data set: IL-6 in bronchoalveolar lavage fluid, bleomycin model. The following applies: prevention model, 30 mg/kg oral, 21 days; FIG. 6. In kind it is in vivo, mice. The protocol: The activities of compounds COMPOUND 2 and COMPOUND 33 in preventing and/or treating pulmonary fibrosis were examined using a bleomycin-induced pulmonary fibrosis model, a model that involves deactivated bleomycin hydrolase, elevated oxidative stress, and increased inflammatory cytokines. In the prevention model, mice were administered bleomycin intratracheally an hour in prior to the first oral administration of 30 mg/kg testing compounds. The treatment continued for 21 consecutive days, and mice were sacrificed to examine histological changes of lung tissues were analyzed by H&E staining to evaluate the degree of lung fibrosis.

Regarding `CCc1nc2cc(F)c(/C=C/C(=O)NO)cc2c(=O)n1-c1c(C)cccc1C` [Compound 2, (E)-3-(3-(2,6-dimethylphenyl)-2-ethyl-7-fluoro-4-oxo-3,4-dihydroquinazolin-6-yl)-N-hydroxyacrylamide], the “neurite degeneration (neurite area and number of blebs ratio)” value in data set [1] is recorded as “significantly lesser degree of neurite degeneration”. The “mean withdrawal threshold (50% PWT)” value in data set [2] is on record as “significantly increased the mean withdrawal threshold”. Besides, the Cmax in data set [3] turned out to be 1150 ng/mL. This compound yielded an AUC in data set [3] (unit inferred) of 12500 ng·h/mL. Further, the “duration of effect after the dosing was stopped” value in data set [4] (15 and 30 mg/kg) is reported as at least 14 days. The “sensitivity to the mechanical stimulation” value in data set [4] (15 and 30 mg/kg, starting from study Day 14) is “significantly reduced the sensitivity”. Besides, the “pain-relief after dosing was stopped” value in data set [4] (FIG. 7) was “maintained for at least two weeks after dosing was stopped”. The “threshold of mean withdrawal force” value in data set [4] (vs vehicle, from study Day 14, oral once daily Days 8 to 12 and 15-19) is “significant increase in the threshold of mean withdrawal force”. Moreover, the neurite outgrowth entry in data set [5] is reported as “significantly rescued the neurite outgrowth”. Also, in data set [6] (BioMAP readouts), the fibrosis-related matrix activities entry is reported as “decreased TIMP-1, MMP-1, Collagen I, Collagen III, MMP-9”; the inflammation-related activities entry is listed as “decreased M-CSF, VCAM-1, sIL-6, MCP-1; increased I-TAC”; the myofibroblast activation-related activities result was “decreased αSMA, N-Cadherin”; the “tissue remodeling/wound healing activities” value is on record as “decreased EGFR, tPA, uPA, bFGF, sVEGF”. Moreover, the “activities on cytokines contributing to fibrosis” value in data set [6] (compared with nintedanib) was “marked activities in decreasing TNF-α, IL-1, IL-6, MMP-9, VEGF, and collagen I”. In addition, the tubulin hyperacetylation entry in data set [7] was “tubulin hyperacetylation”. In data set [8], the “IL-6 level in the BALF” value was “suppressed IL-6 level in the BALF”.
